# Test results taken from US20250064789A1, “KETOAMIDE DERIVATIVES AND PHARMACEUTICAL USES THEREOF” (priority 2022, published 2025).
# Biological target: recombinant SARS-CoV-2 M^pro (Severe acute respiratory syndrome coronavirus 2 (2019-nCoV) (SARS-CoV-2), UniProt P0DTD1)
# Assay: Inhibition of SARS-CoV-2 M^pro enzyme activity (fluorescent substrate assay)
# Format: biochemical
# Settings: inhibition of SARS-CoV-2 M^pro enzyme activity; values given in μM; read-out: IC50
row,SMILES,IC50 [µM]
1,O=C(CNC(=O)c1cnccn1)N[C@H](Cc1ccccc1)C(=O)C(=O)NCc1nccs1 [Compound 478],3.62 ± 0.27
2,O=C(NCc1ncon1)C(=O)[C@@H](Cc1ccccc1)NC(=O)c1ccccc1 [Compound 460],53.1 ± 3.34
3,COC[C@@H](NC(=O)C1CCCC(F)(F)C1)C(=O)N[C@H](Cc1ccccc1)C(=O)C(=O)NCc1ncon1 (stereo partly drawn) [Compound 562],> 2.5
4,O=C(CNC(=O)c1ccccn1)N[C@H](Cc1ccccc1)C(=O)C(=O)NCc1nccs1 [Compound 479],2.24 ± 0.1
5,O=C(NCc1cnc(Cl)s1)C(=O)[C@@H](Cc1ccccc1)NC(=O)c1ccccc1 [Compound 463],95.2 ± 5.99

# Same assay, conditions: inhibition of SARS-CoV-2 M^pro enzyme activity; values in nM; read-out: IC50
row,SMILES,IC50 [µM]
1,C[C@@H](NC(=O)CC1CCOCC1)C(=O)N[C@H](Cc1ccccc1)C(=O)C(=O)NCc1ccccn1 [Compound 135],0.0573 ± 0.0053
2,O=C(NCc1nccs1)C(=O)[C@@H](Cc1ccccc1)NC(=O)[C@H]1COCCN1C(=O)[C@@H]1C[C@@H]2[C@H](C1)C2(F)F [Compound 412],0.0248 ± 0.0008
3,O=C(NCc1nccs1)C(=O)[C@@H](Cc1ccccc1)NC(=O)[C@H]1COCCN1C(=O)C1CCCC(F)(F)C1 (stereo partly drawn) [Compound 410],0.0253 ± 0.0017
4,"O=C(Cc1noc(-c2ccc(F)c(F)c2)n1)N[C@H](Cc1ccccc1)C(=O)C(=O)NCc1nccs1 [Compound 516, (R)-3-(2-(5-(3,4-difluorophenyl)-1,2,4-oxadiazol-3-yl)acetylamino)-2-oxo-4-phenyl-N-(thiazole-2-ylmethyl)butyramide]",0.033 ± 0.0019
5,O=C(NCc1ccccn1)C(=O)[C@@H](Cc1ccccc1)NC(=O)C12CC(CN1C(=O)C1CCC(F)(F)CC1)C2 [Compound 274],0.9108 ± 0.0065
6,CC1(C)C(C(=O)NC2(C(=O)N[C@H](Cc3ccccc3)C(=O)C(=O)NCc3ccccn3)CCC2)C1(C)C [Compound 192],0.0254 ± 0.0009
7,O=C(Cn1cc(-c2ccc(F)nc2)cn1)N[C@H](Cc1ccccc1)C(=O)C(=O)NCc1nccs1 [Compound 493],0.4515 ± 0.0023
8,Cc1ccc(CO[C@H](C)C(=O)N[C@H](Cc2ccccc2)C(=O)C(=O)NCc2ccccn2)cc1 [Compound 14],0.0193 ± 0.0028
9,O=C(NCc1ccccn1)C(=O)[C@@H](Cc1ccccc1)NC(=O)C1(NC(=O)C2CCC(F)(F)CC2)CCOC1 (stereo partly drawn) [Compound 228],0.0181 ± 0.0011
10,C[C@@H](NCC1CCC(F)(F)CC1)C(=O)N[C@H](Cc1ccccc1)C(=O)C(=O)NCc1nccs1 [Compound 554],0.8901 ± 0.0013
11,CC(C)(NC(=O)c1ccc(F)cc1)C(=O)N[C@H](Cc1ccccc1)C(=O)C(=O)NCc1ccccn1 [Compound 186],0.0186 ± 0.0011
12,O=C(Cc1noc(-c2ccc(F)c(Cl)c2)n1)N[C@H](Cc1ccccc1)C(=O)C(=O)NCc1nccs1 [Compound 526],0.0284 ± 0.0015
13,O=C(NCc1ccccn1)C(=O)[C@@H](Cc1ccccc1)NC(=O)C1(OCc2ccc(Cl)cc2)CC1 [Compound 25],0.0249 ± 0.0003
14,C[C@@H](NC(=O)N1CCC(F)(F)CC1)C(=O)N[C@H](Cc1ccccc1)C(=O)C(=O)NCc1nccs1 [Compound 414],0.0959 ± 0.0097
15,CC(C)(C)C(NC(=O)c1ccc(F)cc1)C(=O)N[C@H](Cc1ccccc1)C(=O)C(=O)NCc1ccccn1 (stereo partly drawn) [Compound 252],0.0949 ± 0.0027
16,"N#Cc1cc(F)cc(N2CC(=O)N(CC(=O)N[C@H](Cc3ccccc3)C(=O)C(=O)NCc3nccs3)C2=O)c1 [Compound 518, (R)-3-(2-(3-(3-cyano-5-fluorophenyl)-2,5-dioxoimidazolidin-1-yl)acetylamino)-2-oxo-4-phenyl-N-(thiazole-2-ylmethyl) butyramide]",0.2485 ± 0.0014
17,O=C(CNC(=O)c1ccc(Cl)c(Cl)c1)N[C@H](Cc1ccccc1)C(=O)C(=O)NCc1ccccn1 [Compound 440],0.0204 ± 0.0004
18,C[C@@H](NC(=O)C1Cc2ccccc2O1)C(=O)N[C@H](Cc1ccccc1)C(=O)C(=O)NCc1ccccn1 (stereo partly drawn) [Compound 102],0.0266 ± 0.0004
19,O=C(CNC(=O)c1ccc(F)cc1)N[C@H](Cc1ccccc1)C(=O)C(=O)NCc1nccs1 [Compound 483],0.3384 ± 0.003
20,C[C@H](c1ccccc1)N1C[C@H](C(=O)N[C@H](C)C(=O)N[C@H](Cc2ccccc2)C(=O)C(=O)NCc2ccccn2)CC1=O [Compound 124],0.0451 ± 0.0006

row,SMILES,IC50 [µM]
1,C[C@@H](NC(=O)[C@@H]1C[C@@H]2[C@H](C1)C2(F)F)C(=O)N[C@H](Cc1ccccc1)C(=O)C(=O)NCc1cscn1 [Compound 420],0.0108 ± 0.0007
2,O=C(NCc1ccccn1)C(=O)[C@@H](Cc1ccccc1)NC(=O)C1(NC(=O)c2[nH]nc3c2COCC3)CCC1 [Compound 200],0.2193 ± 0.0006
3,"O=C(NC1(C(=O)N[C@H](Cc2ccccc2)C(=O)C(=O)NCc2ccccn2)CCC1)OCC1CCC(F)(F)CC1 [Compound 313, (4,4-difluorocyclohexyl)methyl(R)-(1-((3,4-dioxo-1-phenyl-4-((pyridin-2-ylmethyl)amino)butan-2-yl)carbamoyl)cyclobutyl) carbamate]",0.016 ± 0.002
4,O=C(NCc1nccs1)C(=O)[C@@H](Cc1ccccc1)NC(=O)C1(NC(=O)C2CCC(F)(F)CC2)CC1 [Compound 538],0.0335 ± 0.0015
5,O=C(NCc1ccccn1)C(=O)[C@@H](Cc1ccccc1)NC(=O)C1(NC(=O)C2CCCC(F)(F)C2)CCC1 (stereo partly drawn) [Compound 193],0.0167 ± 0.0004
6,CC[C@@H](C)[C@@H](NC(=O)C1CCC(F)(F)CC1)C(=O)N[C@H](Cc1ccccc1)C(=O)C(=O)NCc1ccccn1 [Compound 221],0.0156 ± 0.0012
7,C[C@@H](NC(=O)c1ccn(-c2ccccc2)n1)C(=O)N[C@H](Cc1ccccc1)C(=O)C(=O)NCc1nccs1 [Compound 381],0.4168 ± 0.004
8,O=C(CNC(=O)C1CCC(F)(F)CC1)N[C@H](Cc1ccc(Cl)cc1)C(=O)C(=O)NCc1ccccn1 [Compound 447],0.1873 ± 0.0011
9,COC[C@@H](NC(=O)c1ccc(F)cc1)C(=O)N[C@H](Cc1ccccc1)C(=O)C(=O)NCc1ccccn1 [Compound 253],0.0224 ± 0.0014
10,O=C(NCc1ccccn1)C(=O)[C@@H](Cc1ccccc1)NC(=O)C1(NC(=O)[C@H]2CC[C@H](c3ccc(Cl)cc3)CC2)CCC1 [Compound 201],0.6534 ± 0.0041
11,C[C@@H](OCc1cccc(OC(F)(F)F)c1)C(=O)N[C@H](Cc1ccccc1)C(=O)C(=O)NCc1ccccn1 [Compound 5],0.0154 ± 0.0007
12,CC[C@@H](NC(=O)C1CCC(F)(F)CC1)C(=O)N[C@H](Cc1ccccc1)C(=O)C(=O)NCc1nccs1 [Compound 535],0.0357 ± 0.00017
13,O=C(NCc1ccccn1)C(=O)[C@@H](Cc1ccccc1)NC(=O)[C@H]1CC2CCCCC2N1C(=O)NCC1CC(F)(F)C1 (stereo partly drawn) [Compound 308],0.0139 ± 0.0012
14,C[C@@H](NC(=O)CC1CC(F)(F)C1)C(=O)N[C@H](Cc1ccco1)C(=O)C(=O)NCc1ccccn1 [Compound 364],0.0751 ± 0.0001
15,O=C(CNC(=O)c1ccccc1F)N[C@H](Cc1ccccc1)C(=O)C(=O)NCc1nccs1 [Compound 481],0.9983 ± 0.0002
16,C[C@H](OCc1ccccc1)C(=O)N[C@H](Cc1ccccc1)C(=O)C(=O)NCc1ccccn1 [Compound 10],0.113 ± 0.0321
17,O=C(NCc1nccs1)C(=O)[C@@H](Cc1ccccc1)NC(=O)[C@@H](CO)NC(=O)C1CCCC(F)(F)C1 (stereo partly drawn) [Compound 570],0.0406 ± 0.002
18,C[C@@H](NC(=O)C1C2CCCC2CN1C(=O)OC(C)(C)C)C(=O)N[C@H](Cc1ccccc1)C(=O)C(=O)NCc1ccccn1 (stereo partly drawn) [Compound 118],0.0402 ± 0.0034
19,O=C(NC1CCC(F)(F)CC1)NC1(C(=O)N[C@H](Cc2ccccc2)C(=O)C(=O)NCc2ccccn2)CC1 [Compound 299],0.0157 ± 0.0001
20,O=C(NCc1nccs1)C(=O)[C@@H](Cc1ccccc1)NC(=O)[C@H]1CC(F)(F)CN1C(=O)C1CCCC(F)(F)C1 (stereo partly drawn) [Compound 403],0.0204 ± 0.0024
